Source: article PMC10584170, “Machine learning-based phenotypic imaging to characterise the targetable biology of Plasmodium falciparum male gametocytes for the development of transmission-blocking antimalarials” (PLOS Pathogens, 2023)

What was measured:
[1] = system: P. falciparum male gametocytes; test: P. falciparum Dual Gamete Formation Assay (PfDGFA), male readout (exflagellation); type: cell-based, Plasmodium falciparum NF54; conditions: for % inhibition male (individual replicates) R1: replicate R1; for % inhibition male (individual replicates) R3: replicate R3; for % inhibition male (individual replicates) R4: replicate R4; for Average inhibition male (%): average of replicates; for Activity: hit = >50% inhibition in male or female readout in at least 3 replicates, 0 = no class assigned
In short: (§1)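 NF54 mature gametocytes (d14), cpd 24 h 37°C hypoxic gas; trigger: xanthurenic acid ookinete medium + Cy3 anti-Pfs25, 4°C 4 min → 28°C 4 min. Male: exflagellation centres, brightfield x6. Female: Pfs25+ gametes, fluorescence, +24 h 28°C dark.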

[2] = system: P. falciparum female gametocytes; test: P. falciparum Dual Gamete Formation Assay (PfDGFA), female readout (Pfs25-positive female gametes); type: cell-based, Plasmodium falciparum NF54; conditions: for % inhibition female (individual replicates) R1: replicate R1; for % inhibition female (individual replicates) R3: replicate R3; for % inhibition female (individual replicates) R4: replicate R4; for Average inhibition female (%): average of replicates
In short: as §1

[3] = PfDGFA at 2µM, 24h preincubation with gametocytes prior to induction of gametogenesis
[4] = PfDGFA at 2µM, 24h preincubation
[5] = 2µM, 24h preincubation with gametocytes prior to induction of gametogenesis
[6] = 2µM, 24h preincubation, hits selected on >50% inhibition in the male readout across replicates
[7] = 2µM, 24h preincubation, hits selected on >50% inhibition in the female readout across replicates
[8] = PfDGFA at 2µM, 24h preincubation with gametocytes
[9] = 2µM, 24h preincubation, number of replicates with >50% inhibition in the male readout
[10] = 2µM, 24h preincubation, number of replicates with >50% inhibition in the female readout
[11] = 2µM, 24h preincubation with gametocytes

Structure (SMILES)	% inhibition male (individual replicates) R1 [1, 3]	% inhibition male (individual replicates) R4 [1, 3]	Average inhibition male (%) [1, 4]	% inhibition female (individual replicates) R1 [2, 3]	% inhibition female (individual replicates) R3 [2, 3]	% inhibition female (individual replicates) R4 [2, 3]	Average inhibition female (%) [2, 4]	Average inhibition male (%) [1, 5]	% inhibition male (individual replicates) R1 [1, 5]	% inhibition male (individual replicates) R3 [1, 5]	% inhibition male (individual replicates) R4 [1, 5]	Average inhibition female (%) [2, 5]	% inhibition female (individual replicates) R1 [2, 5]	% inhibition female (individual replicates) R3 [2, 5]	% inhibition female (individual replicates) R4 [2, 5]	further results
O=C(COc1ccccc1)N(Cc1ccc(-c2ccc(CNC3Cc4ccccc4C3)cc2)cc1)C1CCNCC1.O=C(O)C(F)(F)F [TCMDC-141450]	15.3%	33.6%	16.7%	8.2%	-25.4%	-2.6%	-0.0825%									% inhibition male (individual replicates) R3 [1, 3]: -5.5%
CN(C)CCCNCc1ccc(-c2ccc(CNCCOc3ccccc3)cc2)cc1.O=C(O)C(F)(F)F [TCMDC-141457]	5.2%	30.2%	9.2%	3.5%	-18.9%	-9.2%	-4.9%									% inhibition male (individual replicates) R3 [1, 3]: 1.0%
COc1cccc(CCN(Cc2ccccc2-c2ccc(CNC3CC(C)(C)NC(C)(C)C3)cc2)C(=O)NC2CCCCC2)c1.Cl [TCMDC-141577]								1.5%	8.1%	-2.0%	2.2%	13.0%	16.8%	-15.5%	31.4%	HitlevelM [1, 6]: 0; Activity [1, 4]: 0; HitlevelF [2, 7]: 0
CN(C)CCCNc1nccc(N(C)c2ccc(NC(=O)Nc3cc(C(F)(F)F)ccc3F)cc2)n1.O=C(O)C(F)(F)F [TCMDC-141633]								62.2%	40.8%		63.9%	13.3%	14.0%	9.3%	15.1%	HitlevelM [1, 6]: 2; Activity [1, 4]: 0; HitlevelF [2, 7]: 0
O=C(O)C(F)(F)F.c1ccc(CCNCc2ccc(-c3ccc(CNC4CCN(Cc5ccccc5)CC4)cc3)nc2)cc1 [TCMDC-141649]								11.3%	9.5%	-1.4%	30.2%	11.9%	20.3%	-13.0%	18.4%	HitlevelM [1, 6]: 0; Activity [1, 4]: 0; HitlevelF [2, 7]: 0
CCCCCCN1CCC(NCc2ccc(OCCN3CCCC3)cc2)CC1.O=C(O)C(F)(F)F [TCMDC-141663]								7.0%	26.8%	-12.7%	-11.8%	15.8%	20.0%	13.5%	15.0%	HitlevelM [1, 6]: 0; Activity [1, 4]: 0; HitlevelF [2, 7]: 0
CN1CCc2cc(NS(=O)(=O)c3ccc(-c4ccc(Cl)cc4)cc3)c(OCCCN3CCCCC3)cc2CC1.Cl [TCMDC-141754]																Average inhibition male (%) [1, 8]: 76.4%; % inhibition male (individual replicates) R1 [1, 8]: 81.6%; % inhibition male (individual replicates) R3 [1, 8]: 46.2%; % inhibition male (individual replicates) R4 [1, 8]: 86.2%; HitlevelM ([1]; number of replicates with >50% inhibition in the male readout, 2µM): 3; Average inhibition female (%) [2, 8]: 21.5%; % inhibition female (individual replicates) R1 [2, 8]: 25.0%; % inhibition female (individual replicates) R3 [2, 8]: 13.0%; % inhibition female (individual replicates) R4 [2, 8]: 19.2%; HitlevelF ([2]; number of replicates with >50% inhibition in the female readout, 2µM): 0
Cl.Clc1ccc(C2CCN(CCCOc3ccc4c(c3)CCNCC4)CC2)cc1 [TCMDC-141782]								47.0%	45.1%	27.8%	64.2%	28.4%	14.5%	2.3%	70.0%	HitlevelM [1, 9]: 2; HitlevelF [2, 10]: 1
Cc1cc(F)ccc1-c1nc(NCCCNCCc2ccccc2)nc2c1ccc(=O)n2-c1c(F)cccc1F.O=C(O)C(F)(F)F [TCMDC-141804]								11.7%	17.7%	-28.8%	37.6%	33.0%	27.9%	6.6%	62.0%	HitlevelM [1, 9]: 0; HitlevelF [2, 10]: 1
Cc1c(Cn2ncc(N3CCC(N)CC3)c(Cl)c2=O)cccc1NC(=O)Nc1ccc(-c2ccccc2)cc1.O=C(O)C(F)(F)F [TCMDC-141931]								36.5%	42.7%	3.4%	40.2%	48.9%	32.2%	19.7%	64.5%	HitlevelM [1, 9]: 1; HitlevelF [2, 10]: 2
Nc1nc(N)c2cc(CNc3ccc(Cl)c(Cl)c3)ccc2n1 [TCMDC-141974]	19.3%	9.5%	20.3%	1.5%	-5.9%	0.5%	-1.4%									% inhibition male (individual replicates) R3 [1, 3]: 26.8%
COc1ccc2c(c1)nc(CNC(=N)N)n2Cc1ccc(Cl)cc1.Cl [TCMDC-142042]								-2.9%	-15.5%	-14.5%	30.2%	8.7%	5.3%	-8.2%	2.2%	HitlevelM [1, 6]: 0; Activity [1, 4]: 0; HitlevelF [2, 7]: 0
Cc1ccc2nc(C)cc(N/N=C/c3ccc([N+](=O)[O-])cc3)c2c1 [TCMDC-142070]	-12.6%	12.9%	-0.848%	9.6%	-4.2%	-9.4%	1.3%									% inhibition male (individual replicates) R3 [1, 3]: -7.9%
CC1(C)N=C(N)N=C(N)N1c1ccc(Cl)c(Cl)c1.Cl [TCMDC-142180]	8.4%	-27.5%	6.9%	-5.5%	-6.4%	1.4%	-4.7%									
CCOc1ccc2c(=NN=Cc3ccc(OC)c(OC)c3)cc(C)[nH]c2c1 [TCMDC-142206]								11.1%	9.5%	6.4%	28.2%	22.4%	27.0%	-3.4%	40.7%	HitlevelM [1, 9]: 0; HitlevelF [2, 10]: 0
Cl.Nc1c(I)cc(C(=O)Nc2ccc3nc4c(c(N)c3c2)CCCC4)cc1I [TCMDC-142289]																Average inhibition male (%) [1, 11]: 92.1%; % inhibition male (individual replicates) R1 [1, 11]: 89.6%; % inhibition male (individual replicates) R4 [1, 11]: 96.1%; Average inhibition female (%) [2, 11]: 49.6%; % inhibition female (individual replicates) R1 [2, 11]: 51.7%; % inhibition female (individual replicates) R3 [2, 11]: 34.7%; % inhibition female (individual replicates) R4 [2, 11]: 48.7%
O=c1c(NCCCN(Cc2ccc(F)cc2)c2ccccn2)c(NCc2ccncc2)c1=O [TCMDC-142310]	-3.0%	-2.5%	-8.8%	6.5%	-28.2%	-7.1%	-7.2%									% inhibition male (individual replicates) R3 [1, 3]: -19.8%
